From paper PMC11184559, “Identification and Validation of Compounds Targeting Leishmania major Leucyl-Aminopeptidase M17” (ACS Infectious Diseases, 2024)
“And” between values parts separate entries of the source, which are not always exact repeats. Identical values can stand only once.

Experiments:
rLmLAP = rLmLAP (Leishmania major, UniProt Q7KF27); experiment: RapidFire-MS aminopeptidase activity assay: inhibition of rLmLAP (LSTVIVR substrate); assay type: biochemical; conditions: for IC50: RapidFire-MS, 5 nM enzyme, 10 μM LSTVIVR, 20 min preincubation, 0.195-100 μM, mean ± standard error (n = 3)
Method: Assays were carried out as previously described,[24] with some differences indicated below. The reaction mix consisted of 0 nM (control) and 30 nM rLmLAP in 1× PBS, pH 7.0, 0.005% (v/v) NP-40, plus 7.5 μL of LSTVIVR substrate peptide in the same buffer. For product quantification, the peak areas of the LSTVIVR peptide were integrated with respect to the internal standard LSTVIVR* peptide. The C-terminal arginine was chosen because this amino acid is amenable to isotopic labeling.[45]
rLmLAP was assayed at 5 nM with 10 μM (1× appKM) of LSTVIVR substrate peptide. The enzyme was preincubated with bestatin or DMSO for 20 min. Bestatin was prepared at 10 concentrations in DMSO, covering the range from 0.39 to 100 μM. […] The remaining experimental conditions were maintained, as described above.
A high-throughput screen was conducted against rLmLAP using 3,383 compounds with known protease inhibitor motifs. The compounds were dispensed onto plates using an ECHO 550 acoustic dispenser (Labcyte, Sunnyvale, CA). The enzyme was assayed at 5 nM with 10 μM (1× appKM) LSTVIVR substrate for 60 min. Before adding the substrate, the enzyme was preincubated with 45 nL of the compounds or DMSO for 20 min. Compounds, dissolved in DMSO, were tested at 30 μM. […] No replicates were performed for each inhibitor in this experiment. The remaining experimental conditions were kept constant as described above. The ActivityBase program from IDBS provider (https://www.idbs.com) was used to process and analyze the data. Selection criteria for potential inhibitors in this screen required an inhibition percentage greater than the mean (calculated from the inhibition percentages of all the inhibitors) plus three standard deviations (SD). All compounds were purchased commercially and are >95% pure by HPLC.
To obtain IC50 data for screen-detected rLmLAP inhibitors at a single concentration, ten-point concentration–response curves were generated for selected inhibitors showing greater than mean ±3 SD inhibition. The curves were prepared in 384-well plates with a maximum concentration of 100 μM and 1:2 serial dilutions in DMSO (0.195–100 μM) using an ECHO 550 acoustic dispenser. All other experimental conditions were as described above for RapidFire-MS optimization. Three replicates of each concentration of inhibitor were evaluated. The IC50 value was calculated by nonlinear fitting of a four-parameter logistic function to the experimental data. Curve fitting and IC50 calculations were performed using IDBS ActivityBase XE version 9.2.0.106. Inhibitory activity was determined using the peak area ratio, calculated as the reaction product (STVIVR) divided by its internal standard (*LSTVIVR). The peak area ratio of the reaction without enzyme was defined as 100% inhibitory activity, and that of the complete reaction mixture was defined as 0% inhibitory activity. At least three replicates were generated for each hit compound.

[1] = system: L. donovani intracellular amastigotes; experiment: Leishmania donovani intracellular (intramacrophage) assay, single concentration; assay type: cell-based; conditions: Leishmania donovani, Macrophage, 96 h, intracellular amastigotes in macrophages, Hoechst imaging, read-out: Inhibition of L. donovani proliferation (%)
Method: The effect of the compounds selected as inhibitors of rLmLAP on the proliferation of L. donovani amastigotes was evaluated at a concentration of 50 μM. Macrophage cultures (ECACC, catalog number: 88081201) were used as host cells. Parasites were incubated with 4.27× 10^7 macrophages, at a multiplicity of infection (MOI) of 5, at 37 °C with 5% CO2, overnight in DMEM medium supplemented with 4.5 g/L glucose and glutamine and 10% FBS, in a Millicell HY T-600 three-layer culture flask (Merck Millipore, Solna, Sweden). […] Macrophages were incubated for another 24 h in the above conditions with 133 μL of fresh DMEM medium prewarmed at 37 °C and supplemented with 10% FBS to obtain a high count of intracellular amastigotes.
Forty-two hours after macrophage infection, compounds (50 μM, 250 nL in DMSO) were dispensed using LabCyte ECHO into each well of 384-well dark flat bottom plates (Corning, New York, USA). The plates were incubated at 37 °C, 5% CO2, for 4 h (without compounds, with DMSO, to determine the initial level of infection) and for 96 h (with and without compounds).

Sequence of rLmLAP (Q7KF27 entry or part of it): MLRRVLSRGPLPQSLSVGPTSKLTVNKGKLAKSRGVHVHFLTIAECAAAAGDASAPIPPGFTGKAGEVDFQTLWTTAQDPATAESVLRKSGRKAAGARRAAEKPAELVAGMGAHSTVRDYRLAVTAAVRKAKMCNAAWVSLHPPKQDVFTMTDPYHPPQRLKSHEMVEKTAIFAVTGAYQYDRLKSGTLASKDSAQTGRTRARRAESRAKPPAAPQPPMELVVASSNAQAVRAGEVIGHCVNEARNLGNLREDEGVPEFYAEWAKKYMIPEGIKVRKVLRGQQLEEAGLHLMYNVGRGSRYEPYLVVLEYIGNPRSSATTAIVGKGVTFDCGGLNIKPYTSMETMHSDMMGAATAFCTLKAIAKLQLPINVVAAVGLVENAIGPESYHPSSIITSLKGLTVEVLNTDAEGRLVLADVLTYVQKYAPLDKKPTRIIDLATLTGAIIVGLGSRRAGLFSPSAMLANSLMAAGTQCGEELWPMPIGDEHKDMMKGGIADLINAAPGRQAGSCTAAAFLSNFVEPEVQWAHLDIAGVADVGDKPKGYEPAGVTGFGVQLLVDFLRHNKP

Structure (SMILES) | IC50 (rLmLAP) | inhibition at 50 µM [1] [%] | inhibition at 30 µM (rLmLAP; single-point high-throughput screen at 30 μM, read-out: Inhibition of rLmLAP in the screening) [%]
CC(C)C[C@H](NC(=O)[C@@H](O)[C@H](N)Cc1ccccc1)C(=O)O [Bestatin, reference compound] | 6 µM and 6.1 µM | – | –
Cc1cc(C(=O)N(Cc2ccco2)Cc2cc3ccc(Cl)cc3nc2N2CCCC2)n(C)n1 [DDD00092594] | 36.3 ± 3.3 µM | 19.9 ± 1.3 | –
N#CC(=Cc1cn(Cc2ccc(C(=O)O)o2)c2ccccc12)c1ccc(F)cc1 [DDD00092624] | 35.2 ± 3.2 µM | 7 ± 1 | –
N#CC(=Cc1cn(Cc2ccc(C(=O)O)o2)c2ccccc12)c1nc2ccccc2[nH]1 [DDD00092640] | 20.2 ± 1.1 µM | 0 | –
CS(=O)(=O)Nc1cc2ccccc2cc1C(=O)O [DDD00095117] | 19 ± 1 µM | 0 | –
COc1ccc(S(=O)(=O)N2Cc3ccccc3CC2C(=O)O)cc1 (stereo not shown) [DDD00095849] | 60 ± 5 µM | 12.7 ± 1.5 | –
Cc1ccc(C(=O)O)cc1S(=O)(=O)Nc1cccc(C2SCCS2)c1 [DDD00096698] | 50 ± 4 µM | 0 | ~65
O=C(O)c1ccc(-c2nccs2)s1 [DDD00097905] | 37.1 ± 3.3 µM | 0 | –
